Laboratory results published in article PMC7730205, “Different Sensitivity of Control and MICU1- and MICU2-Ablated Trypanosoma cruzi Mitochondrial Calcium Uniporter Complex to Ruthenium-Based Inhibitors” (International Journal of Molecular Sciences, 2020).

Experiments:
T. cruzi epimastigotes = experiment: Cellular respiration of epimastigotes (high-resolution respirometry); format: cell-based, Trypanosoma cruzi
Protocol: Figure 4 Effect of Ru265 on Trypanosoma cruzi. (a) Effect of Ru265 on epimastigote growth. Growth of control epimastigotes in LIT medium in the presence of 1 μM, 5 μM, and 10 μM Ru265. (b) Effect of Ru265 on trypomastigote attachment. Trypomastigotes were pretreated for 30 min with 1 μM antimycin A (AA) or 10 μM Ru265 and added to glutaraldehyde-fixed Vero cells. After 1 h of incubation at 37 °C, the cells were washed, and the number of attached trypomastigotes was counted. […] (c) Effect of Ru265 on trypomastigotes infection. Trypomastigotes were pretreated for 30 min with 1 μM antimycin A or 10 μM Ru265 and added to Vero cells. After 4 h of incubation at 37 °C, the cells were washed, and the number of intracellular parasites was counted. […] (f) Routine respiration (initial oxygen flux values), leak respiration after the addition of 0.5 µg/mL of oligomycin A, and electron transfer system (ETS) capacity after the sequential additions of FCCP (0.2 μM each) were measured for each condition. […] (g) Representative experiment showing mitochondrial Ca^2+ uptake by intact epimastigotes in relative fluorescence units (RFU). […] (h) Changes in fluorescence (before and after ionomycin addition) from three experiments like that shown in panel (g). […]

[1] = system: T. cruzi epimastigotes (control, TcMICU1-KO, TcMICU2-KO); experiment: Mitochondrial membrane potential of digitonin-permeabilized epimastigotes (safranine O); format: cell-based, Trypanosoma cruzi; conditions: TcMICU1-KO or TcMICU2-KO cells, succinate
Excerpt: To determine whether the defect in mitochondrial Ca^2+ uptake in the presence of inhibitors was not secondary to mitochondrial membrane depolarization, we measured the mitochondrial membrane potential (Δψm) of digitonin-permeabilized epimastigotes using safranine O in the presence of succinate as mitochondrial substrate.
Figure 3 Effect of inhibitors on the mitochondrial membrane potential of epimastigotes. Changes in mitochondrial membrane potential (Δψm) of digitonin-permeabilized epimastigotes as detected by changes in safranine O fluorescence in control (a), TcMICU1-KO (b), and TcMICU2-KO (c) epimastigotes in the absence or presence of inhibitors. Cells (5 × 10^7) were added to the reaction buffer (2 mL) containing 0.2% BSA, 5 mM succinate, 50 μM EGTA and 5 μM safranine O. The reaction was started with 50 μM digitonin (DIG) in the presence or absence of the inhibitor, and 250 μM ADP, 1.5 μM carboxyatractyloside (CAT), 50 μM CaCl2 (Ca^2+), 200 μM EGTA, and 4 μM FCCP were added when indicated. A decrease in fluorescence after permeabilization with digitonin indicated the accumulation of the dye in energized mitochondria. The addition of ADP produced a small dissipation of membrane potential, indicating ADP phosphorylation. Δψm returned to its initial level after the addition of the adenine nucleotide translocator inhibitor CAT. The addition of FCCP collapsed the membrane potential. (d) Changes in safranine O fluorescence after digitonin addition (between 30 and 60 s) in control (C), TcMICU1-KO and TcMICU2-KO epimastigotes. […] Changes in safranine O fluorescence in control (C) (e), TcMICU1-KO (1-KO) (f), and TcMICU2-KO (2-KO) (g) epimastigotes after addition of ADP from three experiments like that shown in panels (a–c).
Estimation of mitochondrial membrane potential in situ was done spectrofluorometrically using the indicator dye safranine O, as described previously. […] Fluorescence changes were monitored using the Hitachi F-7000 spectrofluorometer (excitation of 495 nm and emission of 586 nm).

## N.N.N.N.N.N.N.N.[Cl][Ru+3].[N-]=[Ru][Cl] [Ru265]
T. cruzi epimastigotes; 10 µM Ru265, n = 3
  Uncoupled respiratory control rate (state 3u / rate with oligomycin): 1.70 ± 0.04
T. cruzi epimastigotes; control epimastigotes, 10 µM Ru265, compared with parasites without inhibitor
  Effect on O2 consumption level: did not affect O2 consumption level
[1]
  Effect on mitochondrial membrane potential (Δψm) and response to ADP: did not significantly affect
